Earlier results, collected in patent US6919359B2, “Azabicyclic-substituted-heteroaryl compounds for the treatment of disease” (Pfizer Inc, priority 2001, dated 2005).

How the values were obtained:
5HT3R = biological target: T1, 5HT3R (Homo sapiens, UniProt P46098)
T1 sequence (P46098 24-478): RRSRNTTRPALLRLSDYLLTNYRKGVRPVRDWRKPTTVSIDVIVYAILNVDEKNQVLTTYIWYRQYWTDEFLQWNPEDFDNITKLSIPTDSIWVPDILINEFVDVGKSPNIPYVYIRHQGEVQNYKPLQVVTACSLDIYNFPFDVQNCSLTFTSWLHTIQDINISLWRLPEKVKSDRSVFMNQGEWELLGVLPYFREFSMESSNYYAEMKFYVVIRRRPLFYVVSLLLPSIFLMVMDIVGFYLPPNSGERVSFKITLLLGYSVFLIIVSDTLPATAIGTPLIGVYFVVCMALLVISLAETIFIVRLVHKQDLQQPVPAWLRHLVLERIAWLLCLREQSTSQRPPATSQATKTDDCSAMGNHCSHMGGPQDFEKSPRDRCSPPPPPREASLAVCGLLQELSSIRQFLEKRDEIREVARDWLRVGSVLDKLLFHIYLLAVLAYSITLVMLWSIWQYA

α7 nAChR = α7 nAChR (Homo sapiens, UniProt P36544)
Sequence of α7 nAChR (P36544 23-502): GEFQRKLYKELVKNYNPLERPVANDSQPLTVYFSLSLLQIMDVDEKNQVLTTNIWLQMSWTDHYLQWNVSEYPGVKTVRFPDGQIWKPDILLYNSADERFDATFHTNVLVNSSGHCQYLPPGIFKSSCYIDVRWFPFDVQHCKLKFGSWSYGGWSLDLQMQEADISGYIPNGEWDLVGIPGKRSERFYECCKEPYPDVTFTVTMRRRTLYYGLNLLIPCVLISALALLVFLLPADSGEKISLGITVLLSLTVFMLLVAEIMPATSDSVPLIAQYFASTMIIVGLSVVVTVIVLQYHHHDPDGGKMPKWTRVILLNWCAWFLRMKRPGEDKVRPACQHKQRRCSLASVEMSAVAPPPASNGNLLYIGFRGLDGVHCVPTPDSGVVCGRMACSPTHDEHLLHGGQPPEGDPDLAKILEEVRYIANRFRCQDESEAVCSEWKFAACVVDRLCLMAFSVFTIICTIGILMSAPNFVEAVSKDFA

| activity at the 5HT3R (5HT3R) | activity at the α7 nAChR (α7 nAChR) | Compound |
| --- | --- | --- |
| little activity | – | COc1ccc(/C=C2\CCCN=C2c2cccnc2)c(OC)c1 [GTS-21] |
| – | little activity | Cc1nccn1CC1CCc2c(c3ccccc3n2C)C1=O (centres unmarked) [Ondansetron] |
